Data taken from patent US6783949B1, “Processes for determining whether a test substance contains lipases or lipase inhibitors” (Aventis Pharma Deutschland GmbH, priority 1999, dated 2004).
pIC50: −log10 of the molar value.

Target: T1, HSL (Rattus norvegicus, UniProt P15304)
T1 construct: The partially purified HSL can be stored at −70° C. for 4 to 6 weeks; from tissue; host or cells: rat epididymal fat cells (male Wistar rats)
T1 sequence (P15304 1-768 isoform P15304-2): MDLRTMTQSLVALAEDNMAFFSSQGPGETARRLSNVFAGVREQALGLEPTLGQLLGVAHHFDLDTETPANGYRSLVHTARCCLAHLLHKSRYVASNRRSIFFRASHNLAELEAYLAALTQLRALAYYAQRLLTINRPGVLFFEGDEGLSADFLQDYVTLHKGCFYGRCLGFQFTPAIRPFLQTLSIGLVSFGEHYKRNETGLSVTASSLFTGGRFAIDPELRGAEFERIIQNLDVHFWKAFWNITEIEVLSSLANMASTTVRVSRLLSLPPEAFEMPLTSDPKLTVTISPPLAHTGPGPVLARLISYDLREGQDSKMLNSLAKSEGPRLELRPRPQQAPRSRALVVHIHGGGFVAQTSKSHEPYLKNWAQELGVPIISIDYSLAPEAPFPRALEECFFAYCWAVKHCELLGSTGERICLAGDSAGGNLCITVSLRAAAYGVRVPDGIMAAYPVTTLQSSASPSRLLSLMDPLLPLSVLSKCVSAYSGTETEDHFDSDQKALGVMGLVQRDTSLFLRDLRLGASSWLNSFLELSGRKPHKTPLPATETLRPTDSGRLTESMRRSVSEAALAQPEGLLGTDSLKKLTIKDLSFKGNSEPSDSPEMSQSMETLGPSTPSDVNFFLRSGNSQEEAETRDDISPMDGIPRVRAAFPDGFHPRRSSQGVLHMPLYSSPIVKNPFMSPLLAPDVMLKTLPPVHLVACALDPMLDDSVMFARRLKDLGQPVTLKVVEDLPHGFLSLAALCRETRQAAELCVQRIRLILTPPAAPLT
Experiment: Tributyrin assay
Type: biochemical
Settings: Example 6, Table 6; n=5, mean±SD
Experimental: Isolated rat fat cells are obtained from epididymal fatty tissue from untreated male rats (Wistar, 220-250 g) by collagenase treatment according to published processes. The fat cells from 10 rats are washed three times by flotation with 50 ml each of homogenization buffer ([…], pH 7.4, 0.25 M sucrose, 1 mM ethylenediamine-N,N,N′,N′-tetraacetic acid (EDTA), 1 mM dithiothreitol (DTT), 10 μg/ml of leupeptin, 10 μg/ml of antipain, 20 μg/ml of pepstatin) and finally taken up in 10 ml of homogenization buffer. The fat cells are homogenized in a Teflon-in-glass homogenizer (Braun-Melsungen) by 10 strokes at 1500 rpm and 15° C. The homogenizate is centrifuged (Sorvall SM24 tubes, 5000 rpm, 10 min, 4° C.). […]
For the preparation of the substrate, 5 μCi of [1-^14C]tributyrin (in toluene) are added to 1 ml of 20 mM unlabeled tributyrin (in acetonitrile). […] An equivalent volume (1 ml) of the upper phase is taken and the radioactivity is determined by liquid scintillation measurement.
Substances are customarily tested in four independent batches. The inhibition of the enzymatic activity of the HSL by a test substance is determined by comparison with an uninhibited control reaction. The IC50 value is calculated by means of an inhibition curve using at least 10 concentrations of the test substance. […]

With `O=C(CCCCCCCCCCCNc1ccc([N+](=O)[O-])c2nonc12)OCC(O)CO` (racemic) [Compound 3] the pIC50 was less than 4.00.
